The values that follow come from patent publication US20250353819A1, “ARYL HYDANTOIN COMPOUNDS AND METHODS OF USE” (priority 2022, published 2025).

“And” between values parts separate entries of the source, which are not always exact repeats. Identical values can stand only once. Like-named read-outs stand apart in the source and are kept apart here.

Series [1] is described as follows: Kinetic solubility (nephelometry). Format: physicochemical. The settings on record: aqueous buffer, kinetic from dmso stock; kinetic solubility, pH 6.5 phosphate buffer; read-out: Sol6.5. The procedure: Kinetic Solubility. Compounds in DMSO (10 mg/mL) were diluted into either pH 6.5 phosphate buffer or 0.01 M HCl (approx. pH 2.0) with the final DMSO concentration being 1%. Samples were then analysed via nephelometry to determine a solubility range (Bevan and Lloyd, 2000).

Series [2] is described as follows: Stability in mouse cryopreserved hepatocytes. It counts as in vitro ADME.
A short description of series [3]: Whole blood-to-plasma ratio, rat. Format: in vitro ADME. The procedure: As part of the assessment of the IV pharmacokinetics, an additional blood sample was collected from each rat at 1 h post dose for the purposes of determining the whole blood-to-plasma (B/P) ratio. Arterial blood was collected into tubes containing heparin. The haematocrit was determined via centrifugation (13000×g for 4 min using a Clemets® Microhematocrit centrifuge and Safecap® Plain Self-sealing Mylar Wrapped capillary tubes), and values ranged from 41% to 42%. Each blood aliquot ([…]) was collected and matrix matched with an equivalent volume of blank plasma. The remainder of the blood sample was centrifuged and […] plasma aliquot was collected and matrix matched with an equivalent volume of blank blood. Samples were frozen on dry ice and stored at −80° C. until analysis by LC-MS.

A further series has as its target CYP 1A2 (Homo sapiens (Human), UniProt P05177). The series can be described thus: CYP inhibition in human liver microsomes, 1A2. It counts as in vitro ADME.
Series [4] in a line: Stability in rat cryopreserved hepatocytes. It counts as in vitro ADME. The settings on record: for CLint: Rat cryopreserved hepatocytes.
Series [5] can be described thus: Plasma protein binding, dog plasma. It counts as in vitro ADME. The settings on record: read-out: % bound (converted).
Series [6] in a line: Stability in dog cryopreserved hepatocytes. Format: in vitro ADME. The settings on record: for CLint: Dog cryopreserved hepatocytes.
A short description of series [7]: Partition coefficient (Log D) by gradient HPLC. It counts as physicochemical. The settings on record: pH 7.4, chromatographic estimate; read-out: gLogD7.4. An excerpt:
Partition Coefficient. Partition coefficient values (Log D) of the test compounds were estimated by correlation of their chromatographic retention properties against the characteristics of a series of standard compounds with known partition coefficient values using gradient HPLC (modification of a method reported by Lombardo et al., 2001).

Series [8] can be described thus: Plasma protein binding, rat plasma. Format: in vitro ADME. The settings on record: read-out: % bound (converted).
Series [9] is described as follows: In vitro metabolic stability, human liver microsomes. It counts as in vitro ADME. The settings on record: human liver microsomes; read-out: h CLint. The procedure: (§1) In Vitro Metabolic Stability. As described by Charman et al. (2020), metabolic stability assays were performed by incubating test compounds in liver microsomes at 37° C. and 0.4 mg/mL protein concentration. The metabolic reaction was initiated by the addition of an NADPH-regenerating system and quenched at various time points over a 60 min incubation period by the addition of acetonitrile containing diazepam as internal standard. Control samples (containing no NADPH) were included (and quenched at 2, 30 and 60 min) to monitor for potential degradation in the absence of cofactor.

Series [10] in a line: Plasma protein binding, mouse plasma. It counts as in vitro ADME. The settings on record: for fraction unbound: mouse, plasma, read-out: % bound (converted).
The nature of series [11]: Plasma protein binding (rapid equilibrium dialysis), human plasma. It counts as in vitro ADME. The settings on record: for fraction unbound: human, plasma, read-out: % bound (converted). (In equilibrium dialysis only unbound substance equilibrates across the membrane.)
Series [12] can be described thus: Stability in human cryopreserved hepatocytes. It counts as in vitro ADME.
A further series deals with CYP 2C19 (Homo sapiens (Human), UniProt P33261). Put plainly: CYP inhibition in human liver microsomes, 2C19. It counts as in vitro ADME. In general terms: Microsomes from liver hold many membrane-bound enzymes, among them those of drug oxidation.
A short description of the next series: Binding to HLM. The settings on record: human liver microsomes.
A further series deals with S. haematobium. The series can be described thus: S. haematobium infections in hamsters. Format: in vivo. The settings on record: single 50 mg/kg oral dose.
Another series is described as follows: Photostability. It counts as physicochemical. The settings on record: 500 μg/mL in 50% aq. MeOH, simulated confirmatory and forced degradation sunlight conditions. The procedure: MeOH also was evaluated under simulated confirmatory and forced degradation sunlight conditions.
Series [13] concerns S. japonicum. Put plainly: S. japonicum infections in mice. Format: in vivo.
Series [14] in a line: Whole blood to plasma partitioning, human. It counts as in vitro ADME.
Series [15] is described as follows: In vitro metabolic stability, rat microsomes. Format: in vitro ADME. The settings on record: liver microsomes. How it is done:
as §1

In the next series the test system is androgen-receptor. The series can be described thus: DHT-induced (KLK3, FKBP5) and DHT-repressed (ZFP36L1) transcripts in LAPC4 cells. Format: cell-based. The settings on record: Compound IE up to 10 μM.
Series [16] has as its system S. japonicum. Put plainly: S. japonicum infections in hamsters. Format: in vivo.
The nature of series [17]: In vitro metabolic stability, dog microsomes. It counts as in vitro ADME. The settings on record: liver microsomes. How it is done:
as §1

The next series has as its system adult S. mansoni. The series can be described thus: ex vivo exposure of adult S. mansoni. More on the design: species or system Schistosoma mansoni. The settings on record: S. mansoni worms exposed ex vivo. An excerpt: Without wishing to be bound to any particular theory, it is believed that the activity of the disclosed compounds is mediated at least in part by a host effect.

Sequence of CYP 1A2 (P05177 whole entry): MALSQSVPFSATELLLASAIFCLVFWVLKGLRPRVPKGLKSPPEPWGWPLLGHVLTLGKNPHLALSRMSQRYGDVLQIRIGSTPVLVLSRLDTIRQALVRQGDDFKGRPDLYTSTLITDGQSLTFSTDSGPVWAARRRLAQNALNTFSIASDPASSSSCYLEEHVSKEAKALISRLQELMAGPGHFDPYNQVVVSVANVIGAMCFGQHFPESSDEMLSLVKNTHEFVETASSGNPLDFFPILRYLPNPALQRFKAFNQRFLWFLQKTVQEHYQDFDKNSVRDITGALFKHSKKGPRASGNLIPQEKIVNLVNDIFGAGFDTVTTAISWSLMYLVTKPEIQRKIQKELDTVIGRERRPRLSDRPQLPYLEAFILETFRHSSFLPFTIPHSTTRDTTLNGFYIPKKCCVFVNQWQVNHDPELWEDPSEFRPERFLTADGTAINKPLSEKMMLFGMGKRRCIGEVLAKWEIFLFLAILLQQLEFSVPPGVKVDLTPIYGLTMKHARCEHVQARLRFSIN
Sequence of CYP 2C19 (P33261 whole entry): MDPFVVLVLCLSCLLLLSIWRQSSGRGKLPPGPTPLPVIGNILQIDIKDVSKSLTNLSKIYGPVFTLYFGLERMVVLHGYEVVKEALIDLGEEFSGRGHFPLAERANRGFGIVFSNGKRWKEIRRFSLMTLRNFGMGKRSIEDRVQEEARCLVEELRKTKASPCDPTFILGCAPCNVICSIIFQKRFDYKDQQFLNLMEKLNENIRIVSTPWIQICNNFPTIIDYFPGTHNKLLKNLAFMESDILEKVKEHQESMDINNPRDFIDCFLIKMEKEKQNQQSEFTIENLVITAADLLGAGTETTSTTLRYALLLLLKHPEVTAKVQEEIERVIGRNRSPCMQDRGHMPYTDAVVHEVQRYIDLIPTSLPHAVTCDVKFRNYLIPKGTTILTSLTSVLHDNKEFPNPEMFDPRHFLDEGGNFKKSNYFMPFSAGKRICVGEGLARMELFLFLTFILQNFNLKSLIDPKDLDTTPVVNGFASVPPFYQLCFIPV

Turning to `CC1(C)NC(=O)N(c2ccc(F)c(C(C)(F)F)c2)C1=O` [Compound IC, 3-(3-(1,1-difluoroethyl)-4-fluorophenyl)-5,5-dimethylimidazolidine-2,4-dione], the solubility kinetic in series [1] is > 100 µg/mL. Moreover, the CLint in series [2] is listed as <1.8 μL/min/10^6; in series [4] it was <1 μL/min/10^6; in series [6], <1.9 μL/min/10^6; in [12], <1 μL/min/10^6. Besides, the “B:P” value in [3] was 1.2. Also, the half-maximal inhibitory concentration (IC50) at CYP 1A2 and on CYP 2C19 was > 20 µM in each case. Further, the fraction unbound in series [5] was 0.36; in series [8], 0.38; in series [10], 0.38; in series [11], 0.34. The chromatographic logD in series [7] is 2.6. In addition, the microsomal CLint in [9] was 7 µL/min/mg.
Turning to `[2H]C([2H])([2H])C1(C([2H])([2H])[2H])NC(=O)N(c2ccc(F)c(C(C)(F)F)c2)C1=O` [Compound IE, 3-(3-(1,1-difluoroethyl)-4-fluorophenyl)-5,5-bis(methyl-d3)imidazolidine-2,4-dione], the fraction unbound in “Binding to HLM” is 1; in [5] it was 0.32; in series [8], 0.42; in series [10] it was 0.462; in series [11], 0.367. In addition, the CLint in [2], in [4], in [6] and in [12] was <2 μL/min/10^6 throughout. The hepatocyte CLint in series [2] (read-out: in vitro CLint) was < 2000 µL/min/1e6 cells; in series [4] (rat cryopreserved hepatocytes, read-out: in vitro CLint), < 2000 µL/min/1e6 cells; in [6] (dog cryopreserved hepatocytes, read-out: in vitro CLint), < 2000 µL/min/1e6 cells; in [12] (read-out: in vitro CLint), < 2000 µL/min/1e6 cells. Further, the “clearance of S. haematobium infections” value with S. haematobium is on record as “completely cleared”. Further, the “B:P” value in series [3] was 1.0; in [14], 0.78±0.035 and 0.78. The IC50 – broadly, the point on the concentration scale where inhibition reaches its midpoint – was > 20 µM at CYP 1A2 (1A2, read-out: CYP inhibition IC50) and > 20 µM at CYP 2C19 (2C19, read-out: CYP inhibition IC50). The CYP inhibition result is on record as “did not inhibit” at CYP 1A2 (CYP 1A2, concentrations up to 20 μM, human liver microsomes) and “did not inhibit” at CYP 2C19 (CYP 2C19, concentrations up to 20 μM, human liver microsomes). In the series “Photostability”, the “loss of parent compound (photostability)” value is < 3%. The chromatographic logD in series [7] was 2.5. For the same compound, the microsomal CLint in series [9], in series [15] and in [17] was < 7 µL/min/mg in each case. The “% bound” value was 54% in series [10] and 63% in series [11]. For the same compound, the ED50 (as a rule, the midpoint of the dose-response relation) in the series with S. japonicum [13] (Schistosoma japonicum, oral) is 6.7 mg/kg; in the series on S. japonicum [16] (Schistosoma japonicum, oral), 8.5 mg/kg. Moreover, the “clearance of S. japonicum infections” value in the series on S. japonicum [13] (single 25 mg/kg oral dose) and with S. japonicum [16] (single 25 mg/kg oral dose) was “completely cleared” each time. Moreover, in the series with androgen-receptor, the “levels of DHT-induced (KLK3, FKBP5) and DHT-repressed (ZFP36L1) transcripts” value is given as “no effect”. In the series on adult S. mansoni, the “changes via transcriptomic and ultraresolution microscopy” value is “no significant changes”.
